5 compounds from patent publication US4440740A, “α-Keto aldehydes as enhancing agents of gastro-intestinal drug absorption” (Merck & Co., Inc., priority 1982, dated 1984) can be followed below.

Data set [1] can be described thus: rectal absorption of Ara-C with methylglyoxal or phenylglyoxal. Particulars: in vivo. An excerpt: Effect of methylglyoxal and phenylglyoxal on rectal absorption of Ara-C, 4-Amino-1β-D-Arabinofuranosyl-2(1H)-pyrimidinone (Cytarabine), an antineoplastic, antiviral agent
Ara-C present at 1% w/v concentration

A short description of data set [2]: duodenal absorption of cyclic hexapeptide somatostatin analog with phenylglyoxal. Particulars: rat, in vivo, 0.4 mg, pH 5, duodenal, 0.4 mg peptide, 250 μl, read-out: Percent Bioavailability. As to the method: (§1) Effect of Phenylglyoxal on Rectal and Duodenal Absorption of a Cyclic Hexapeptide Somatostatin Analog Specifically Cyclo-(N-Me-Ala-Tyr-D-Trp-Lys-Val-Phe)
(§2) 250 μl volume, pH 5/animal
(§3) Cyclo-(N--Me--Ala--Tyr--D-Trp--Lvs--Val--Phe)
duodenal 250 μl injection 1 cm distal to pylorus

Data set [3] in a line: rectal absorption of cyclic hexapeptide somatostatin analog with phenylglyoxal. As to conditions: rat, in vivo, 0.4 mg, pH 5, rectal, 0.4 mg peptide, 250 μl, read-out: Percent Bioavailability. On the procedure: as §1, §2, §3
microenema 250 μl at 2.5 cm intrarectal depth

The nature of data set [4]: rectal drug bioavailability in rats, aqueous microenema with α-keto aldehyde absorption enhancer, versus intravenous administration. Format: in vivo. Particulars: 10 mg/kg. On the procedure: Aqueous microenemas were administered to rats at an intrarectal depth of 2.5 cm containing 10 mg/kg target drug and 20 mg/kg α-keto aldehyde absorption enhancer. Serum samples were collected and drug bioavailability determined versus intravenous administration of the target compound. Glyoxylic acid, methylglyoxal and phenylglyoxal were tested as representative compounds in the α-keto aldehyde series. Data has been oriented for rectal delivery of two antibiotics (shown below).

On to `Nc1ccn([C@@H]2O[C@H](CO)[C@@H](O)[C@@H]2O)c(=O)n1` [Ara-C, 4-Amino-1β-D-Arabinofuranosyl-2(1H)-pyrimidinone, reference compound], for which the bioavailability in data set [1] (rectal, Ara-C 1% w/v, adjuvant: none) is 13.1%. Moreover, the AUC at 1.5 h in data set [1] (rectal, Ara-C 1% w/v, adjuvant: none, 0-90 min, read-out: 0 min-90 min (quantity head is drawing 2) of Ara-C (converted)) was 1250 ng·h/mL.

Consider `CC(C)[C@@H]1NC(=O)[C@H](CCCCN)NC(=O)[C@@H](Cc2c[nH]c3ccccc23)NC(=O)[C@H](Cc2ccc(O)cc2)NC(=O)[C@H](C)N(C)C(=O)[C@H](Cc2ccccc2)NC1=O` [Cyclo-(N-Me-Ala-Tyr-D-Trp-Lys-Val-Phe)], for which the bioavailability in data set [2] (phenylglyoxal 0 mg/ml) came out at 1%; in data set [2] (phenylglyoxal 25 mg/ml), 20%; in data set [3] (phenylglyoxal 0 mg/ml), 7%; in data set [3] (phenylglyoxal 25 mg/ml) it was 34%.

`O=CC(=O)c1ccccc1` [Phenylglyoxal, phenyl glyoxal]: in data set [1], the “% Bioavailability of Ara-C” value was 70.5%. In addition, in data set [1] (90 min), the “0 min-90 min (quantity head is drawing 2) of Ara-C” value came to 798 ± 71.0 µg·min/mL.

`CO[C@@]1(NC(=O)Cc2cccs2)C(=O)N2C(C(=O)O)=C(COC(N)=O)CS[C@@H]21` [sodium cefoxitin, (6R-cis)-3-[[(Aminocarbonyloxy]methyl]-7-methoxy-8-oxo-7-[(2-thienylacetyl))amino]-5-thia-1-azabicyclo-[4.2.0]oct-2-ene-2-carboxylic acid]: the bioavailability in data set [4] (rat, in vivo) turned out to be 5%.

gentamicin sulfate: the “% bioavailability, control formulations” value in data set [4] (rectal, control formulation without keto aldehyde adjuvant, mean, 3 animals) came out at 5%.

A word on the bioavailability: it is dose-corrected exposure relative to a reference, in per cent.
